# In article PMC3722118, “Hellebrin and its aglycone form hellebrigenin display similar in vitro growth inhibitory effects in cancer cells and binding profiles to the alpha subunits of the Na^+/K^+-ATPase” (Molecular Cancer, 2013):
# Like-named read-outs stand apart in the source and are kept apart here.
# Columns and labels:
# Format in all cases: cell-based, human
# [1] = tested on: GLC-4 and ABCC1- and LRP-overexpressing GLC-4/ADR small cell lung carcinoma cells; assay: MTT viability, MDR model; conditions: 72 hours
# Description: (§1) The following human cancer cell lines and their chemoresistant sublines were used in this study: the colon carcinoma cell line HCT-116 p53/wt and the p53 knock-out cell line HCT-116 p53/ko (generously donated by B. Vogelstein, Johns Hopkins University, Baltimore, MD, USA); the epidermal carcinoma-derived cell line KB-3-1 and the ABCB1-overexpressing subline KB-C-1 (generously donated by D.W. Shen, Bethesda, USA); the small cell lung carcinoma cell line GLC-4 and the ABCC1- and LRP-overexpressing subline GLC-4/ADR (from E.G. de Vries, Groningen, Netherlands); the ovarian carcinoma cell line A2780 and the cisplatin resistant subline A2780cis (purchased from Sigma-Aldrich); and the promyelocytic leukemia cell line HL60 and the mitoxantrone resistant subline HL60/mx (generously donated by G. Harker, Salt Lake City, USA). All cell lines were grown in RPMI 1640 supplemented with 10% fetal bovine serum with the exception of the HCT-116 cells, which were grown in McCoy’s medium with 10% serum.
# (§2) Figure 4 Impact of different MDR mechanisms on the cytotoxicity of hellebrigenin. […] Viability was determined using a 3-(4,5-dimethythiazol-2-yl)-2,5-diphenyltetrazolium bromide (MTT) colorimetric assay. […]
# [2] = tested on: KB-3-1 and ABCB1-overexpressing KB-C-1 cells; assay: MTT viability, MDR model; conditions: 72 hours
# Description: as §1, §2
# [3] = tested on: MCF-7 breast cancer cells; assay: MTT colorimetric in vitro growth inhibition assay; conditions: read-out: IC50 (nM) MCF-7
# In short: (§3)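 Optical density of formazan formed from MTT by living cells, treated versus control wells, gives the growth-inhibition measure. Cultures were kept in RPMI containing 10% heat-inactivated fetal calf serum and 4 mM glutamine, and every condition was run in six replicates.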
# HT-29 colon cancer cells [4] = assay: MTT colorimetric in vitro growth inhibition assay; conditions: read-out: IC50 (nM) HT-29
# In short: as §3
# [5] = tested on: PC-3 prostate cancer cells; assay: MTT colorimetric in vitro growth inhibition assay; conditions: read-out: IC50 (nM) PC-3
# In short: as §3
# T98G glioma cells = assay: MTT colorimetric in vitro growth inhibition assay; conditions: read-out: IC50 (nM) T98G
# In short: as §3
# Hs683 glioma cells = assay: MTT colorimetric in vitro growth inhibition assay; conditions: read-out: IC50 (nM) Hs683
# In short: as §3
# U373 glioma cells = assay: MTT colorimetric in vitro growth inhibition assay; conditions: read-out: IC50 (nM) U373
# In short: as §3
# A549 NSCLC cells = assay: MTT colorimetric in vitro growth inhibition assay; conditions: read-out: IC50 (nM) A549
# In short: as §3
# SKMEL-28 melanoma cells = assay: MTT colorimetric in vitro growth inhibition assay; conditions: read-out: IC50 (nM) SKMEL-28
# In short: as §3
# HT-29 colon cancer cells [6] = assay: O2 consumption rate (MitoXpress assay); conditions: compounds at their IC50 (MTT), 24 h
# [7] = three days of culture, * three independent experiments, ** one experiment, six replicates
Compound,sensitivity of GLC4/ADR compared to parental cell line [1],sensitivity of KB-C-1 compared to parental cell line [2],"IC50 [3, 7] [nM]",IC50 (HT-29 colon cancer cells [4]; [7]) [nM],"IC50 [5, 7] [nM]",IC50 (T98G glioma cells; [7]) [nM],IC50 (Hs683 glioma cells; [7]) [nM],IC50 (U373 glioma cells; [7]) [nM],IC50 (A549 NSCLC cells; [7]) [nM],IC50 (SKMEL-28 melanoma cells; [7]) [nM],O2 consumption rate (cell respiration) (HT-29 colon cancer cells [6]),"IC50 ([3]; Homo sapiens, MCF7, 72 h) [nM]","IC50 (HT-29 colon cancer cells [4]; Homo sapiens, HT-29, 72 h) [nM]","IC50 ([5]; Homo sapiens, 72 h) [nM]","IC50 (T98G glioma cells; Homo sapiens, T98G, 72 h) [nM]","IC50 (Hs683 glioma cells; Homo sapiens, Hs 683, 72 h) [nM]","IC50 (U373 glioma cells; Homo sapiens, U373 MG, 72 h) [nM]","IC50 (A549 NSCLC cells; Homo sapiens, A549, 72 h) [nM]","IC50 (SKMEL-28 melanoma cells; Homo sapiens, SK-MEL-28, 72 h) [nM]"
C[C@]12CC[C@H]3[C@@H](CC[C@]4(O)C[C@@H](O)CC[C@]34C=O)[C@@]1(O)CC[C@@H]2c1ccc(=O)oc1 [Hellebrigenin],equally sensitive,equally sensitive,42 ± 2,9 ± 1,18 ± 1,9 ± 1,6 ± 1,9 ± 1,3 ± 1,28 ± 9,,,,,,,,,
C[C@@H]1O[C@@H](O[C@H]2CC[C@]3(C=O)[C@H]4CC[C@]5(C)[C@@H](c6ccc(=O)oc6)CC[C@]5(O)[C@@H]4CC[C@]3(O)C2)[C@H](O)[C@H](O)[C@H]1O[C@@H]1O[C@H](CO)[C@@H](O)[C@H](O)[C@H]1O [Hellebrin],,,,,,,,,,,significantly reduced,58 ± 12,27 ± 4,11 ± 1,30 ± 1,7 ± 1,41 ± 2,6 ± 1,40 ± 5
